Laboratory results from PubChem BioAssay AID2060622 (Molecular Pharmacology Branch, DTP, NCI, 2025).
“And” between values parts separate entries of the source, which are not always exact repeats. Identical values can stand only once. Blank lines part the entries; values can stand above or below the molecule they belong to.

System: 242566-281-R-J2-PDC complex spheroid viability
Test: Anticancer human tumor 242566-281-R-J2-PDC patient-derived pancreatic carcinoma cell line growth inhibition [CLK]
Details: for viability, T/C: stronger effect = lower value
In short: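 Patient-derived tumor cells grown as complex spheroids with HUVEC endothelial cells and mesenchymal stem cells, treated with drug combinations. Concentrations descend in half-log steps from near clinical Cmax, or from 10 microM if Cmax unknown.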

[1] = curve of first compound, second compound 0.0316 µM
[2] = curve of first compound, second compound 0.1 µM
[3] = curve of first compound, second compound 0.316 µM
[4] = curve of first compound, second compound 1 µM
[5] = curve of first compound, second compound 3.16 µM
[6] = curve of first compound, second compound 10 µM
[7] = second compound 0.0316 µM, first compound 0.0316 µM
[8] = second compound 0.0316 µM, first compound 0.1 µM
[9] = second compound 0.0316 µM, first compound 0.316 µM
[10] = second compound 0.0316 µM, first compound 1 µM
[11] = second compound 0.0316 µM, first compound 3.16 µM
[12] = second compound 0.0316 µM, first compound 10 µM
[13] = second compound 0.1 µM, first compound 0.0316 µM
[14] = second compound 0.1 µM, first compound 0.1 µM
[15] = second compound 0.1 µM, first compound 0.316 µM
[16] = second compound 0.1 µM, first compound 1 µM
[17] = second compound 0.1 µM, first compound 3.16 µM
[18] = second compound 0.1 µM, first compound 10 µM
[19] = second compound 0.316 µM, first compound 0.0316 µM
[20] = second compound 0.316 µM, first compound 0.1 µM
[21] = second compound 0.316 µM, first compound 0.316 µM
[22] = second compound 0.316 µM, first compound 1 µM
[23] = second compound 0.316 µM, first compound 3.16 µM
[24] = second compound 0.316 µM, first compound 10 µM
[25] = second compound 1 µM, first compound 0.0316 µM
[26] = second compound 1 µM, first compound 0.1 µM
[27] = second compound 1 µM, first compound 0.316 µM
[28] = second compound 1 µM, first compound 1 µM
[29] = second compound 1 µM, first compound 3.16 µM
[30] = second compound 1 µM, first compound 10 µM
[31] = second compound 3.16 µM, first compound 0.0316 µM
[32] = second compound 3.16 µM, first compound 0.1 µM
[33] = second compound 3.16 µM, first compound 0.316 µM
[34] = second compound 3.16 µM, first compound 1 µM
[35] = second compound 3.16 µM, first compound 3.16 µM
[36] = second compound 3.16 µM, first compound 10 µM
[37] = second compound 10 µM, first compound 0.0316 µM
[38] = second compound 10 µM, first compound 0.1 µM
[39] = second compound 10 µM, first compound 0.316 µM
[40] = second compound 10 µM, first compound 1 µM
[41] = second compound 10 µM, first compound 3.16 µM
[42] = second compound 10 µM, first compound 10 µM
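Also: spheroids exposed to compounds for 7 days before readout.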
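For viability, T/C in this document: 100% = DMSO vehicle control wells.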

IC50 [1]: > 10000 nM | IC50 [2]: > 10000 nM | IC50 [3]: 5150 nM | IC50 [4]: 1940 nM | IC50 [5]: 77.6 nM | IC50 [6]: < 31.6 nM
SMILES: O=c1[nH]cc(F)c(=O)[nH]1 + CNC(=O)c1ccc(Nc2nc(OC3CCCC3)c3c(-c4ccc5nc(C)oc5c4)c[nH]c3n2)c(OC)c1
viability, T/C [7]: 108% | viability, T/C [8]: 116% | viability, T/C [9]: 83.9% | viability, T/C [10]: 91.4% | viability, T/C [11]: 66.5% | viability, T/C [12]: 53.5% | viability, T/C [13]: 96% | viability, T/C [14]: 96.5% | viability, T/C [15]: 86.4% | viability, T/C [16]: 71.7% | viability, T/C [17]: 63.9% | viability, T/C [18]: 52.2% | viability, T/C [19]: 86.1% | viability, T/C [20]: 66.9% | viability, T/C [21]: 67.6% | viability, T/C [22]: 74% | viability, T/C [23]: 53.9% | viability, T/C [24]: 41.3% | viability, T/C [25]: 67% | viability, T/C [26]: 61.2% | viability, T/C [27]: 62.6% | viability, T/C [28]: 56.9% | viability, T/C [29]: 45% | viability, T/C [30]: 25.5% | viability, T/C [31]: 51.9% | viability, T/C [32]: 50.7% | viability, T/C [33]: 44.7% | viability, T/C [34]: 46.2% | viability, T/C [35]: 38.2% | viability, T/C [36]: 22.5% | viability, T/C [37]: 48% | viability, T/C [38]: 50.2% | viability, T/C [39]: 47.3% | viability, T/C [40]: 44.2% | viability, T/C [41]: 34.2% | viability, T/C [42]: 23.2%

IC50 (curve of compound): > 1000 nM
SMILES: CCN1CCN(Cc2ccc(Nc3ncc(F)c(-c4cc(F)c5nc(C)n(C(C)C)c5c4)n3)nc2)CC1
viability, T/C (compound 0.00316 µM): 102% and 83% | viability, T/C (compound 0.01 µM): 102% and 94.6% | viability, T/C (compound 0.0316 µM): 90.6% and 95.6% | viability, T/C (compound 0.1 µM): 103% and 89% | viability, T/C (compound 0.316 µM): 118% and 100% | viability, T/C (compound 1 µM): 132% and 152%

IC50 (curve of compound): 25.8 nM and 43.2 nM
SMILES: COc1c(OCCCN2CCOCC2)ccc2c3n(c(=NC(=O)c4cnc(N)nc4)nc12)CCN3
viability, T/C (compound 0.00316 µM): 86.1% and 72.8% | viability, T/C (compound 0.01 µM): 73.2% and 74.1% | viability, T/C (compound 0.0316 µM): 44.2% and 56.4% | viability, T/C (compound 0.1 µM): 21.8% and 30.8% | viability, T/C (compound 0.316 µM): 12.3% and 19.2% | viability, T/C (compound 1 µM): 6.02% and 16.4%

SMILES: O=C(c1cc(Cc2n[nH]c(=O)c3ccccc23)ccc1F)N1CCN(C(=O)C2CC2)CC1 + CN1CCN(c2cc(C(=O)Nc3cc4cc(-c5cnn(C)c5)ccc4cn3)ccn2)CC1
IC50 [1]: > 10000 nM | IC50 [2]: > 10000 nM | IC50 [3]: < 31.6 nM | IC50 [4]: < 31.6 nM | IC50 [5]: < 31.6 nM | IC50 [6]: < 31.6 nM | viability, T/C [7]: 108% | viability, T/C [8]: 98% | viability, T/C [9]: 94.9% | viability, T/C [10]: 95.3% | viability, T/C [11]: 89.6% | viability, T/C [12]: 80.3% | viability, T/C [13]: 96.8% | viability, T/C [14]: 96.9% | viability, T/C [15]: 79.1% | viability, T/C [16]: 85.6% | viability, T/C [17]: 88.3% | viability, T/C [18]: 62.8% | viability, T/C [19]: 33.5% | viability, T/C [20]: 34.3% | viability, T/C [21]: 29.7% | viability, T/C [22]: 31.1% | viability, T/C [23]: 29.2% | viability, T/C [24]: 23.2% | viability, T/C [25]: 5.93% | viability, T/C [26]: 3.31% | viability, T/C [27]: 4.81% | viability, T/C [28]: 4.43% | viability, T/C [29]: 5.12% | viability, T/C [30]: 5.59% | viability, T/C [31]: 7.36% | viability, T/C [32]: 7.02% | viability, T/C [33]: 6.98% | viability, T/C [34]: 7.16% | viability, T/C [35]: 7.79% | viability, T/C [36]: 10.4% | viability, T/C [37]: 1.95% | viability, T/C [38]: 2.1% | viability, T/C [39]: 1.53% | viability, T/C [40]: 2.95% | viability, T/C [41]: 2.41% | viability, T/C [42]: 1.71%
